Test results: patent US11731977B2, “SGC stimulators” (Cyclerion Therapeutics, Inc., priority 2016, dated 2023)

Assays:
[1] = system: R6/2 mice hippocampal slices; test: Synaptic transmission and plasticity (LTP) in R6/2 mice hippocampal slices (Example 8); design: species or system mouse; conditions: R6/2 slices
Description: Improvements in synaptic transmission and plasticity, as measured by long term potentiation (LTP), is believed to indicate the potential of a compound to enhance memory. LTP is an electrophysiological phenomena that is commonly referred to as the a cellular phenomenon driving learning and memory.
Preparation of acute mice hippocampal slices. Experiments were carried out with 11 to 12 week-old R6/2 and WT mice provided by the Jackson Laboratory (USA). Hippocampal slices (350 μm thickness) were cut with a Macllwain tissue chopper in an ice-cold oxygenated sucrose solution (Saccharose 250, Glucose 11, NaHCO3 26, KCl 2, NaH2PO4 1.2, MgCl2 7, and CaCl2 0.5 in mM). The slices were incubated 1 hour at room temperature in ACSF of the following composition: Glucose 11, NaHCO3 25, NaCl 126, KCl 3.5, NaH2PO4 1.2, MgCl2 1.3, and CaCl2 2 in mM. Then, the slices were let to recover for at least 1 h.
Slice perfusion and temperature control. During the experiments, the slices were continuously perfused with the ACSF (bubbled with 95% O2-5% CO2) at the rate of 3 mL/min with a peristaltic pump (MEA chamber volume: ˜1 mL). Complete solution exchange in the MEA chamber was achieved 20 s after the switch of solutions. The perfusion liquid was continuously pre-heated at 37° C. just before reaching the MEA chamber with a heated-perfusion cannula (PH01, Multichannel Systems, Reutlingen, Germany). The temperature of the MEA chamber was maintained at 37±0.1° C. with a heating element located in the MEA amplifier headstage.
Input/Output (I/O)curve: from 100 to 800 μA, by 100 μA steps. The stimulus intensity was then set to a fixed value of 250 μA for the short- and long-term synaptic plasticity measurements.
Short-term plasticity properties: two pulses with a decreasing inter-stimuli interval (e.g. 300 ms, 200 ms, 100 ms, 50 ms, 25 ms) were applied. Compound application: fEPSP were recorded for 10 minutes in control conditions (to verify the baseline steadiness) followed by a 15-minute exposure to the compound (or 25 minutes in the presence of vehicle only for control slices). A second I/O protocol and paired-pulse protocol were applied, as described previously, in the continuous presence of the compound.
Long-Term Potentiation (LTP); Following a 10-minute control period (in the presence of the compound or vehicle for control slices), LTP was induced by a 10×TBS. Potentiation of synaptic transmission was then monitored for an additional 60-minute period (in the continuous presence of the compound or vehicle for control slices).

rats [2] = test: Acute and tonic pain: formalin test, score (Example 13); type: in vivo, rat; conditions: Compound I-1 p.o. 10 mg/kg, 120 minutes after treatment
Description: Formalin Test. 2.5% formalin solution was injected by subplantar route into the right hind paw. Scoring of pain behavior was performed in rats for 36 minutes every 3 minutes according to the following scores:
0=normal behavior of the injected hind limb to support the body
1=slight touching of the injected paw on the floor to lightly support or not support the body
2=total withdrawal of the injected paw
3=licking, biting or shaking of the injected paw

rats [3] = test: Inflammatory pain: kaolin, gait score (Example 13); type: in vivo, rat; conditions: Compound I-1 p.o. 10 mg/kg, 120 minutes after treatment
Description: Kaolin. Induction: In rats, unilateral arthritis was induced by an intra-articular injection of a 10% kaolin suspension into the knee joint of the right hind paw under gas anesthesia (3.5% isoflurane/3 L/min). Gait score: The gait score will be evaluated 3 h 30 min after kaolin administration by:
2: intermittent raising of the paw

[4] = system: Sprague-Dawley rats, streptozotocin model; test: Rat model of diabetic neuropathy (STZ model), paw pressure test (Example 14); type: in vivo; conditions: Compound I-1 10 mg/kg p.o., mean±s.e.m.

## Fc1ccccc1Cc1nc(-c2nc(C(F)(F)F)n[nH]2)cn2ccnc12 [Compound I-1, 8-(2-fluorobenzyl)-6-(3-(trifluoromethyl)-1H-1,2,4-triazol-5-yl)imidazo[1,2-a]pyrazine]
[1]; 7 nM
  potentiation of the evoked-response amplitudes, stabilized level: around 25%
  rescue of LTP impairment: failed to significantly rescue
[1]; 7 nM (R6/2 control 16±3%, WT 46±5%)
  fEPSP increase at endpoint after HFS (LTP): 26±6%
[1]; 7 nM, 46 nM or 308 nM, exception 308 nM at 50 ms ISI
  effect on short-term plasticity properties (paired pulses, 25 ms to 300 ms ISI): None of the evaluated Compound I-1 concentrations (7 nM, 46 nM or 308 nM) displayed a significant effect
[1]; 7 nM, 46 nM, 308 nM
  effect on overall I/O characteristics: none of the 3 concentrations displayed a significant effect
[1]; 46 nM
  potentiation of the evoked-response amplitudes, stabilized level: around 45%
[1]; 46 nM (R6/2 control 16±3%, WT 46±5%)
  fEPSP increase at endpoint after HFS (LTP): 44±12%
[1]; 46 nM and 308 nM
  rescue of LTP impairment: completely restored the LTP deficit
[1]; 308 nM
  potentiation of the evoked-response amplitudes, stabilized level: around 35%
[1]; 308 nM (R6/2 control 16±3%, WT 46±5%)
  fEPSP increase at endpoint after HFS (LTP): 37±9%
Rats [2]; Formalin test - score (early phase)
  % of activity vs. vehicle: 57%
Rats [2]; Formalin test - score (late phase)
  % of activity vs. vehicle: 32%
Rats [3]
  % of activity vs. vehicle: 40%
[4]; D18, 60 min post administration, gabapentin 100 mg/kg p.o., morphine 4 mg/kg s.c.
  nociceptive threshold (paw pressure test): 328 ± 32.6 g
[4]; D18, 120 min post administration, gabapentin 100 mg/kg p.o., morphine 4 mg/kg s.c.
  nociceptive threshold (paw pressure test): 387 ± 30.2 g
[4]; D18, 180 min post administration
  nociceptive threshold (paw pressure test): 319 ± 23.1 g
[4]; D21, 120 min after dosing, gabapentin 100 mg/kg p.o., morphine 4 mg/kg s.c.
  nociceptive threshold (paw pressure test): 346 ± 20.5 g
[4]; D21, baseline prior to administration (Cmin, daily dosing from D18)
  nociceptive threshold (paw pressure test): 259 ± 25.6 g
